Test results as given in patent US20260374773A1, “MULTI-CYCLIC IRAK AND FLT3 INHIBITING COMPOUNDS AND USES THEREOF” (CHILDREN'S HOSPITAL MEDICAL CENTER, priority 2022, published 2026).

Molecular target: T1, FLT3 R834Q (Homo sapiens, UniProt P36888, R834Q)
T1 sequence (P36888 27-993 R834Q): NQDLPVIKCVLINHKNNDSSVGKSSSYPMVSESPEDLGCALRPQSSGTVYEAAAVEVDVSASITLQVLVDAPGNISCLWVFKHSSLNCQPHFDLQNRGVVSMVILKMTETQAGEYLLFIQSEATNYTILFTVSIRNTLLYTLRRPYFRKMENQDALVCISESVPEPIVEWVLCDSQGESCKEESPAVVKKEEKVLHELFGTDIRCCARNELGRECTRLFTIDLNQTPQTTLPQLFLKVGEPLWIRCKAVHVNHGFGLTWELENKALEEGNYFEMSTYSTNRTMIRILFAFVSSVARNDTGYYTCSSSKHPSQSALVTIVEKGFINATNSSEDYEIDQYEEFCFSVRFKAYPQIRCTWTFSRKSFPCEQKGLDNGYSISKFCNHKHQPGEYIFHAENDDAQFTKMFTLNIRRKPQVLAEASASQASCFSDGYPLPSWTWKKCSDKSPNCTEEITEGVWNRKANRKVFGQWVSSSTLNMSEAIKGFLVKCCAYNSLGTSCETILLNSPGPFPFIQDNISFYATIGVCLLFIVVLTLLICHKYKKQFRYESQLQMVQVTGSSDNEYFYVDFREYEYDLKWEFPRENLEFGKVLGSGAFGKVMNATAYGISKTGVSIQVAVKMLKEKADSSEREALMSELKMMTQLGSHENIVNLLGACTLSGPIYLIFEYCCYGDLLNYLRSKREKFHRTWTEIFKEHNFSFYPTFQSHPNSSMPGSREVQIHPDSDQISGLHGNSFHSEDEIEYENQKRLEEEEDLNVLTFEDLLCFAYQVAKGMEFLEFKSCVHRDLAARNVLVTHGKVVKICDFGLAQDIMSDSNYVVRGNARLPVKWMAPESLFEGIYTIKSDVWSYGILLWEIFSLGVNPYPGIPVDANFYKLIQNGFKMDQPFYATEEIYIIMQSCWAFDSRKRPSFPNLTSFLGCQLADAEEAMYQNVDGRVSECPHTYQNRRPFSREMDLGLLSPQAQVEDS
Experiment: DiscoverX KINOMEscan active site-directed competition binding, FLT3 R834Q
Details: Table 13; no ATP
From the text: (§1) Kinase binding data were obtained for various exemplary compounds prepared according to Examples 1-8 using the DiscoverX KINOMEscan® active site-directed competition binding site-directed assay protocol described below. […] As a result, the data report thermodynamic interaction affinities (Kd values), rather than IC50 values that are dependent on ATP concentrations. The assay uses a DNA-tagged version of the protein kinase, and an immobilized ligand bound to a solid support. Compounds that directly or indirectly prevent kinase binding to the immobilized ligand reduce the amount of kinase captured on the solid support, which is detected using an ultra-sensitive qPCR method. Affinity constants reported from the assay have been reported to be independent of the immobilized ligand used that is coupled to the solid support (See supplemental information in Fabian, M. A. et. al., (2005) Nat. Biotechnol. 23, 329-336; Wodicka, L. M. et. al., (2010) Chem. Biol. 17, 1241-1249.)
Kinase-tagged T7 phage strains were prepared in an E. coli host derived from the BL21 strain. E. coli were grown to log-phase and infected with T7 phage and incubated with shaking at 32 °C until lysis. The lysates were centrifuged and filtered to remove cell debris. The remaining kinases were produced in HEK-293 cells and subsequently tagged with DNA for qPCR detection. Streptavidin-coated magnetic beads were treated with biotinylated small molecule ligands for 30 minutes at room temperature to generate affinity resins for kinase assays. The liganded beads were blocked with excess biotin and washed with blocking buffer (SeaBlock (Pierce), 1% BSA, 0.05% Tween 20, 1 mM DTT) to remove unbound ligand and to reduce non-specific binding. […] Test compounds were prepared as 111x stocks in 100% DMSO. Kds were determined using an 11-point 3-fold compound dilution series with three DMSO control points. All compounds for Kd measurements are distributed by acoustic transfer (non-contact dispensing) in 100% DMSO. The compounds were then diluted directly into the assays such that the final concentration of DMSO was 0.9%. All reactions were performed in polypropylene 384-well plates. Each was a final volume of 0.02 mL. The assay plates were incubated at room temperature with shaking for 1 hour and the affinity beads were washed with wash buffer (1×PBS, 0.05% Tween 20). The beads were then re-suspended in elution buffer (1×PBS, 0.05% Tween 20, 0.5 μM nonbiotinylated affinity ligand) and incubated at room temperature with shaking for 30 minutes. The kinase concentration in the eluates was measured by qPCR. Binding constants (Kds) were calculated with a standard dose-response curve using the Hill equation. The Hill Slope was set to −1. Curves were fitted using a non-linear least square fit with the Levenberg-Marquardt algorithm.
as §1, with “9-12” for “1-8”
Kinase-tagged T7 phage strains were prepared in an E. coli host derived from the BL21 strain. […]

Kd [nM]	SMILES
3.3	COc1cn2ncc(-c3nc(N[C@H]4CNCC[C@@H]4F)c(F)cc3F)c2nc1C(C)(C)O [Compound 13, 2-(3-(3,5-difluoro-6-(((3S,4S)-4-fluoropiperidin-3-yl)amino)pyridin-2-yl)-6-methoxypyrazolo[1,5-a]pyrimidin-5-yl)propan-2-ol]
2.2	COc1cn2ncc(-c3nc(N[C@H]4CNCC[C@@H]4F)c(C#N)cc3F)c2nc1C(C)(C)O [Compound 10, 5-fluoro-2-(((3S,4S)-4-fluoropiperidin-3-yl)amino)-6-(5-(2-hydroxypropan-2-yl)-6-methoxypyrazolo[1,5-a]pyrimidin-3-yl)nicotinonitrile]
< 0.17	COc1cn2ncc(-c3nc(N[C@H]4CNCC[C@@H]4F)c(C#N)cc3F)c2nc1C1CC1 [Compound 7, 6-(5-cyclopropyl-6-methoxypyrazolo[1,5-a]pyrimidin-3-yl)-5-fluoro-2-(((3S,4S)-4-fluoropiperidin-3-yl)amino)nicotinonitrile]

Same assay, conditions: Table 19; no ATP

SMILES	Kd [nM]
COc1cn2ncc(-c3cncc(N[C@H]4CNCC[C@@H]4F)n3)c2nc1C1CC1 [Compound 12a, 6-(5-cyclopropyl-6-methoxypyrazolo[1,5-a]pyrimidin-3-yl)-N-((3S,4S)-4-fluoropiperidin-3-yl)pyrazin-2-amine]	0.35
COc1cn2ncc(-c3nc(N[C@H]4CNCC[C@@H]4F)ncc3F)c2nc1C(C)(C)O [Compound 6a, 2-(3-(5-fluoro-2-(((3S,4S)-4-fluoropiperidin-3-yl)amino)pyrimidin-4-yl)-6-methoxypyrazolo[1,5-a]pyrimidin-5-yl)propan-2-ol]	3.8

More lines, now with the values ahead:

Kd [nM]	SMILES
< 0.17	COc1cn2ncc(-c3nc(N[C@@H]4CCCNC4)ncc3F)c2nc1C1CC1 [Compound 14a, (R)-4-(5-cyclopropyl-6-methoxypyrazolo[1,5-a]pyrimidin-3-yl)-5-fluoro-N-(piperidin-3-yl)pyrimidin-2-amine]
< 0.17	COc1cn2ncc(-c3nc(N[C@H]4CNCC[C@@H]4F)ncc3F)c2nc1C1CC1 [Compound 15a, 4-(5-cyclopropyl-6-methoxypyrazolo[1,5-a]pyrimidin-3-yl)-5-fluoro-N-((3S,4S)-4-fluoropiperidin-3-yl)pyrimidin-2-amine]
0.43	COc1cn2ncc(-c3ccnc(N[C@H]4CNCC[C@@H]4F)n3)c2nc1C1CC1 [Compound 7a, 4-(5-cyclopropyl-6-methoxypyrazolo[1,5-a]pyrimidin-3-yl)-N-((3S,4S)-4-fluoropiperidin-3-yl)pyrimidin-2-amine]
